Data: US20140288113A1, “Extended Release Compositions Comprising Hydrocodone And Acetaminophen For Rapid Onset And Prolonged Analgesia That May Be Administered Without Regard To Food” (MALLINCKRODT LLC, priority 2013, published 2014)

Legend:
hepatic GSH [1] = assay: Hepatic glutathione depletion after acetaminophen in Swiss mice (Brzeznicka and Piotrowski 1989); format: in vivo
Excerpt: The bioequivalence level is 95%.

hepatic GSH [2] = conditions: mice, cited from earlier work

For `CC(=O)Nc1ccc(O)cc1` [acetaminophen], the “safety exposure ratio compared with human levels (1.3 g/day, 70 kg)” value (hepatic GSH [1]; Swiss mice 400 mg/kg) is listed as 22 fold, the “safety exposure ratio compared with human levels (1.3 g/day, 70 kg)” value (hepatic GSH [1]; Swiss mice 600 mg/kg) is listed as 32 fold and the “time after administration at which circulating hepatic GSH changes began” value (hepatic GSH [2]; 100 mg/kg to 600 mg/kg) is listed as ≤ 15 min. The “time after injection of minimum GSH level” value (hepatic GSH [2]; all dose groups) was 2 h.
